# Biological target: Disintegrin and metalloproteinase domain-containing protein 17 (Homo sapiens, UniProt P78536)
# Sequence (P78536 whole entry, the tested form may be a part): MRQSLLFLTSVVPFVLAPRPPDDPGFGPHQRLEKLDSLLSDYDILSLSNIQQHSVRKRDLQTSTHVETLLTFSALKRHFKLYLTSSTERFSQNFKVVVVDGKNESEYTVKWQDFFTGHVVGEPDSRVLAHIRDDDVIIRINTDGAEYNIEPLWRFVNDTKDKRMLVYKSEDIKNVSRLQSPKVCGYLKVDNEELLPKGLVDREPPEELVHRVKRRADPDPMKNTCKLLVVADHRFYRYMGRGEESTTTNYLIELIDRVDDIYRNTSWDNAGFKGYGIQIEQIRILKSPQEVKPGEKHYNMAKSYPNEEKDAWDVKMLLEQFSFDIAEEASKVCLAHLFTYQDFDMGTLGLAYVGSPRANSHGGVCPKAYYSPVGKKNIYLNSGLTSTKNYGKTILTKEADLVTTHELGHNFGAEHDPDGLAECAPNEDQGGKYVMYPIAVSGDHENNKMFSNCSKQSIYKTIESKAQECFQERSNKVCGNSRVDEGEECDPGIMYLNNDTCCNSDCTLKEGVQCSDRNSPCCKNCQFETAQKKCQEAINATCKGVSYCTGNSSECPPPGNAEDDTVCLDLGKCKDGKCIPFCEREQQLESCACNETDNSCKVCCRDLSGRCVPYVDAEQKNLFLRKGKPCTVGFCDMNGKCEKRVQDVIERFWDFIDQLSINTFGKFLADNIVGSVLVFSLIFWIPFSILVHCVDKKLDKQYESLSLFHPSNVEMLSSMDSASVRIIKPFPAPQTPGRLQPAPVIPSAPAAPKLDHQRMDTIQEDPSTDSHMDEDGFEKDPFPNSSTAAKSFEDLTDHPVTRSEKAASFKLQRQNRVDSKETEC
# Description: Inhibition of LPS-stimulated TNF-alpha release in human whole blood
row,SMILES,IC50
1,CC(C)C[C@H]1C(=O)N[C@H](C(=O)N[C@H]2c3ccccc3C[C@H]2O)CCCCNC(=O)OCCC[C@@H]1C(=O)NO,400 nM
2,CC(C)C[C@H]1C(=O)N[C@H](C(=O)N[C@@H]2c3ccccc3C[C@@H]2O)CCCCNC(=O)OCCC[C@@H]1C(=O)NO,110 nM
3,CNC(=O)[C@@H]1CCCCN(C(=O)OC(C)(C)C)CCC[C@H](C(=O)NO)[C@@H](CC(C)C)C(=O)N1,1400 nM
4,CNC(=O)[C@@H]1CCCCN(S(=O)(=O)c2ccccc2)CCC[C@H](C(=O)NO)[C@@H](CC(C)C)C(=O)N1,1300 nM
5,CCOC(=O)N1CCN(C(=O)CNC(=O)[C@@H]2CCCCNC(=O)OCCC[C@H](C(=O)NO)[C@@H](CC(C)C)C(=O)N2)CC1,130 nM
6,CC(C)C[C@H]1C(=O)N[C@H](C(=O)NCc2ccncc2)CCCCNC(=O)OCCC[C@@H]1C(=O)NO,490 nM
7,CC(C)C[C@H]1C(=O)N[C@H](C(=O)NCC(=O)N2CCN(c3ccccc3)CC2)CCCCNC(=O)OCCC[C@@H]1C(=O)NO,70 nM
8,CNC(=O)[C@H](NC(=O)[C@@H]1Cc2ccc(cc2)OCCC[C@H](C(=O)NO)[C@@H](CC(C)C)C(=O)N1)C(C)C,1510 nM
9,CC(C)C[C@H]1C(=O)N[C@H](C(=O)NC[C@H]2CCCO2)CCCCNC(=O)OCCC[C@@H]1C(=O)NO,980 nM
10,CC(C)C[C@H]1C(=O)N[C@H](C(=O)NCCc2ccccn2)CCCCNC(=O)OCCC[C@@H]1C(=O)NO,390 nM
11,CCCCCC[C@H]1C(=O)N[C@H](C(=O)NCc2ccccc2)Cc2ccc(cc2)OCCC[C@@H]1C(=O)NO,2200 nM
12,CNC(=O)[C@@H](C)NC(=O)[C@@H]1Cc2ccc(cc2)OCCC[C@H](C(=O)NO)[C@@H](CC(C)C)C(=O)N1,700 nM
13,CC(C)C[C@H]1C(=O)N[C@H](C(=O)NCC(F)(F)F)Cc2ccc(cc2)OCCC[C@@H]1C(=O)NO,680 nM
14,Cc1csc(NC(=O)[C@@H]2CCCCN(C)C(=O)OCCC[C@H](C(=O)NO)[C@@H](CC(C)C)C(=O)N2)n1,300 nM
15,CC(C)C[C@H]1C(=O)N[C@H](C(=O)NCC(=O)N2CCN(C)CC2)CCCCNC(=O)OCCC[C@@H]1C(=O)NO,160 nM
16,CC(C)C[C@H]1C(=O)N[C@H](C(=O)NCC(=O)N2CCC(N3CCCCC3)CC2)CCCCNC(=O)OCCC[C@@H]1C(=O)NO,180 nM
17,CC(C)C[C@H]1C(=O)N[C@H](C(=O)NCC(=O)N2CCC(O)CC2)Cc2ccc(cc2)OCCC[C@@H]1C(=O)NO,200 nM
18,CNC(=O)CNC(=O)[C@@H]1CCCCN(C)C(=O)OCCC[C@H](C(=O)NO)[C@@H](CC(C)C)C(=O)N1,420 nM
19,CC(C)C[C@H]1C(=O)N[C@H](C(=O)NCC(=O)N2CC(C)OC(C)C2)CCCCNC(=O)OCCC[C@@H]1C(=O)NO (stereo partly drawn),150 nM
20,CNC(=O)[C@@H](CCCCNC(=O)OC(C)(C)C)NC(=O)[C@@H]1CCCCNC(=O)OCCC[C@H](C(=O)NO)[C@@H](CC(C)C)C(=O)N1,210 nM
21,CC(C)C[C@H]1C(=O)N[C@H](C(=O)NCC(=O)N2CC(C)CC(C)C2)Cc2ccc(cc2)OCCC[C@@H]1C(=O)NO (stereo partly drawn),270 nM
22,CC(C)C[C@H]1C(=O)N[C@H](C(=O)NCC(=O)N2CCC(O)CC2)CCCCN(C)C(=O)OCCC[C@@H]1C(=O)NO,300 nM
23,CCCCCC[C@H]1C(=O)N[C@H](C(=O)OC)Cc2ccc(cc2)OCCC[C@@H]1C(=O)NO,> 50000 nM
24,CC(C)C[C@H]1C(=O)N[C@H](C(=O)NCc2ccccn2)CCCCNC(=O)OCCC[C@@H]1C(=O)NO,700 nM
25,CC(C)C[C@H]1C(=O)N[C@H](C(=O)Nc2ccncc2)CCCCN(C)C(=O)OCCC[C@@H]1C(=O)NO,500 nM

row,SMILES,IC50
1,CC(C)C[C@H]1C(=O)N[C@H](C(=O)NCC(=O)N(C)C)CCCCN(C)C(=O)OCCC[C@@H]1C(=O)NO,300 nM
2,CC(C)C[C@H]1C(=O)N[C@H](C(=O)NCC(=O)Nc2cccc3c2Cc2ccccc2-3)Cc2ccc(cc2)OCCC[C@@H]1C(=O)NO,930 nM
3,CC(C)C[C@H]1C(=O)N[C@H](C(=O)NCCc2ccccc2O)CCCCNC(=O)OCCC[C@@H]1C(=O)NO,85 nM
4,CC(C)C[C@H]1C(=O)N[C@H](C(=O)Nc2nc(CC(=O)N3CCOCC3)cs2)CCCCNC(=O)OCCC[C@@H]1C(=O)NO,120 nM
5,CC(C)C[C@H]1C(=O)N[C@H](C(=O)NCC(=O)Nc2ccccn2)CCCCN(C)C(=O)OCCC[C@@H]1C(=O)NO,200 nM
6,CC(C)C[C@H]1C(=O)N[C@H](C(=O)N[C@H](CO)C(=O)N2CCOCC2)CCCCNC(=O)OCCC[C@@H]1C(=O)NO,100 nM
7,CNC(=O)[C@@H](CCCCN)NC(=O)[C@@H]1CCCCNC(=O)OCCC[C@H](C(=O)NO)[C@@H](CC(C)C)C(=O)N1,690 nM
8,CC(C)C[C@H]1C(=O)N[C@H](C(=O)NCC(=O)N2CCN(C)CC2)CCCCN(C)C(=O)OCCC[C@@H]1C(=O)NO,120 nM
9,CNC(=O)[C@@H]1Cc2ccc(cc2)OCCC[C@H](C(=O)NO)[C@@H](CC(C)C)C(=O)N1,1200 nM
10,CNC(=O)[C@@H]1CCCCNC(=O)CO[C@H](C(=O)NO)[C@@H](CC(C)C)C(=O)N1,6500 nM
11,CC(C)C[C@H]1C(=O)N[C@H](C(=O)NCCC(=O)N2CCOCC2)CCCCNC(=O)OCCC[C@@H]1C(=O)NO,170 nM
12,CC(C)C[C@H]1C(=O)N[C@H](C(=O)N[C@H](C)C(=O)N2CCOCC2)CCCCNC(=O)OCCC[C@@H]1C(=O)NO,150 nM
13,CCCCCC[C@H]1C(=O)N[C@H](C(=O)NCC(=O)NC)Cc2ccc(cc2)OCCC[C@@H]1C(=O)NO,550 nM
14,CNC(=O)[C@@H]1CCCCNCCC[C@H](C(=O)NO)[C@@H](CC(C)C)C(=O)N1,2700 nM
15,COC(=O)c1csc(NC(=O)[C@@H]2CCCCNC(=O)OCCC[C@H](C(=O)NO)[C@@H](CC(C)C)C(=O)N2)n1,83 nM
16,COc1ccc2[nH]cc(CCNC(=O)[C@@H]3CCCCNC(=O)OCCC[C@H](C(=O)NO)[C@@H](CC(C)C)C(=O)N3)c2c1,490 nM
17,CC(C)C[C@H]1C(=O)N[C@H](C(=O)NCC(=O)N2CCCCC2)Cc2ccc(cc2)OCCC[C@@H]1C(=O)NO,140 nM
18,Cc1csc(NC(=O)CNC(=O)[C@@H]2CCCCN(C)C(=O)OCCC[C@H](C(=O)NO)[C@@H](CC(C)C)C(=O)N2)n1,300 nM
19,CC(C)C[C@H]1C(=O)N[C@H](C(=O)NCC(=O)N2CCCC(C)(C)C2)Cc2ccc(cc2)OCCC[C@@H]1C(=O)NO,460 nM
20,CNC(=O)[C@@H](CC(C)C)NC(=O)[C@@H]1CCCCNC(=O)OCCC[C@H](C(=O)NO)[C@@H](CC(C)C)C(=O)N1,100 nM
21,CNC(=O)[C@H](C)NC(=O)[C@@H]1Cc2ccc(cc2)OCCC[C@H](C(=O)NO)[C@@H](CC(C)C)C(=O)N1,4490 nM
22,CC(C)C[C@H]1C(=O)N[C@H](C(=O)NCCc2c[nH]c3ccc(F)cc23)CCCCNC(=O)OCCC[C@@H]1C(=O)NO,130 nM
23,COc1ccc2c(CCNC(=O)[C@@H]3CCCCNC(=O)OCCC[C@H](C(=O)NO)[C@@H](CC(C)C)C(=O)N3)c[nH]c2c1,94 nM
24,CC(C)C[C@H]1C(=O)N[C@H](C(=O)NCC(=O)N2CCC(C(=O)O)CC2)CCCCNC(=O)OCCC[C@@H]1C(=O)NO,220 nM
25,CC(C)C[C@H]1C(=O)N[C@H](C(=O)NCC(=O)Nc2ccccc2)Cc2ccc(cc2)OCCC[C@@H]1C(=O)NO,200 nM

row,SMILES,IC50
1,CC(C)C[C@H]1C(=O)N[C@H](C(=O)NCC(=O)N2CCOCC2)CCCCN(C)C(=O)OCCC[C@@H]1C(=O)NO,200 nM
2,CC(C)C[C@H]1C(=O)N[C@H](C(=O)NCC(=O)N2CCC(O)CC2)CCCCNC(=O)OCCC[C@@H]1C(=O)NO,280 nM
3,CC(C)C[C@H]1C(=O)N[C@H](C(=O)NC[C@@H]2CCCO2)CCCCNC(=O)OCCC[C@@H]1C(=O)NO,260 nM
4,CC(C)C[C@H]1C(=O)N[C@H](C(=O)NCc2cccnc2)CCCCNC(=O)OCCC[C@@H]1C(=O)NO,500 nM
5,CC(C)C[C@H]1C(=O)N[C@H](C(=O)Nc2ccc(N3CCOCC3)cc2)CCCCNC(=O)OCCC[C@@H]1C(=O)NO,190 nM
6,CC(C)C[C@H]1C(=O)N[C@H](C(=O)Nc2ccccn2)CCCCN(C)C(=O)OCCC[C@@H]1C(=O)NO,200 nM
7,CNC(=O)[C@@H](COC(C)(C)C)NC(=O)[C@@H]1Cc2ccc(cc2)OCCC[C@H](C(=O)NO)[C@@H](CC(C)C)C(=O)N1,950 nM
8,CC(C)C[C@H]1C(=O)N[C@H](C(=O)Nc2cccnc2)CCCCN(C)C(=O)OCCC[C@@H]1C(=O)NO,500 nM
9,CCOC(=O)N1CCN(C(=O)CNC(=O)[C@@H]2CCCCN(C)C(=O)OCCC[C@H](C(=O)NO)[C@@H](CC(C)C)C(=O)N2)CC1,600 nM
10,CC(C)C[C@H]1C(=O)N[C@H](C(=O)Nc2ccccc2)CCCCNC(=O)OCCC[C@@H]1C(=O)NO,280 nM
11,CC(C)C[C@H]1C(=O)N[C@H](C(=O)NCC(=O)N2CCCC(C(=O)O)C2)CCCCNC(=O)OCCC[C@@H]1C(=O)NO (stereo partly drawn),580 nM
12,CC(C)C[C@H]1C(=O)N[C@H](C(=O)NCc2ccccc2)CCCCNC(=O)OCCC[C@@H]1C(=O)NO,740 nM
13,CC(C)C[C@H]1C(=O)N[C@H](C(=O)NCC(=O)Nc2ccc(F)cc2F)Cc2ccc(cc2)OCCC[C@@H]1C(=O)NO,700 nM
14,CNC(=O)CNC(=O)[C@@H]1CCCCNC(=O)OCCC[C@H](C(=O)NO)[C@@H](CC(C)C)C(=O)N1,120 nM
15,CC(C)C[C@H]1C(=O)N[C@H](C(=O)NCC(F)(F)F)CCCCNC(=O)OCCC[C@@H]1C(=O)NO,2000 nM
16,CC(C)C[C@H]1C(=O)N[C@H](C(=O)NCC(=O)N2CCN(c3ccccn3)CC2)CCCCNC(=O)OCCC[C@@H]1C(=O)NO,70 nM
17,Cc1ccc2[nH]cc(CCNC(=O)[C@@H]3CCCCNC(=O)OCCC[C@H](C(=O)NO)[C@@H](CC(C)C)C(=O)N3)c2c1,1170 nM
18,CNC(=O)[C@@H](Cc1ccc(OC)cc1)NC(=O)[C@@H]1Cc2ccc(cc2)OCCC[C@H](C(=O)NO)[C@@H](CC(C)C)C(=O)N1,850 nM
19,CNC(=O)[C@H](NC(=O)[C@@H]1CCCCNC(=O)OCCC[C@H](C(=O)NO)[C@@H](CC(C)C)C(=O)N1)C(C)(C)C,1200 nM
20,CC(C)C[C@H]1C(=O)N[C@H](C(=O)NCCc2ccc(S(N)(=O)=O)cc2)Cc2ccc(cc2)OCCC[C@@H]1C(=O)NO,1000 nM
21,CC(C)C[C@H]1C(=O)N[C@H](C(=O)NC(C)C)Cc2ccc(cc2)OCCC[C@@H]1C(=O)NO,700 nM
22,CNC(=O)[C@@H](C)NC(=O)[C@@H]1CCCCNC(=O)OCCC[C@H](C(=O)NO)[C@@H](CC(C)C)C(=O)N1,270 nM
23,CC(C)C[C@H]1C(=O)N[C@H](C(=O)NCC(=O)NCC(F)(F)F)Cc2ccc(cc2)OCCC[C@@H]1C(=O)NO,240 nM

# — ChEMBL document CHEMBL1134554, “Design, synthesis, and structure-activity relationships of macrocyclic hydroxamic acids that inhibit tumor necrosis factor alpha release in vitro and in vivo” (J Med Chem, 2001)
